Assay results: ChEMBL document CHEMBL1135346, “2,5-Pyridinedicarboxylic acid derivatives as non-nucleosidic reverse transcriptase inhibitors of hepatitis B virus” (Bioorg Med Chem Lett, 2002)
≈ marks a conversion by molar mass, not a printed value.

Assays:
[1] = Inhibitory activity against Hepatitis B virus reverse transcriptase (HBV-RT) at 0.01 ug/mL
[2] = Inhibitory activity against Hepatitis B virus reverse transcriptase (HBV-RT) at 1 ug/mL
[3] = Inhibitory concentration against Hepatitis B virus reverse transcriptase (HBV-RT)
[4] = Inhibitory activity against Hepatitis B virus reverse transcriptase (HBV-RT) at 0.1 ug/mL
[5] = Inhibitory concentration against Hepatitis B virus-Reverse-transcriptase (HBV-RT)

| inhibition [1] | inhibition [2] | IC50 [3] | inhibition [4] | IC50 [5] | SMILES |
| --- | --- | --- | --- | --- | --- |
| 28% | 63% | 0.13 µg/mL (≈ 0.295 µM) | 53% | – | COCCCNC(=O)c1ccc(C(=O)N2CCN(c3ncccc3NC(C)C)CC2)nc1 |
| 38% | 70% | 0.038 µg/mL (≈ 0.0954 µM) | 62% | – | CC(C)(CO)NC(=O)c1ccc(C(=O)N2CCN(c3ncccc3N)CC2)nc1 |
| 63% | 90% | 0.001 µg/mL (≈ 0.0022 µM) | 71% | – | CC(C)CNc1cccnc1N1CCN(C(=O)c2ccc(C(=O)NC(C)(C)CO)cn2)CC1 |
| 54% | 86% | 0.009 µg/mL (≈ 0.0211 µM) | 60% | – | CC(C)CNc1cccnc1N1CCN(C(=O)c2ccc(C(=O)NCCO)cn2)CC1 |
| 30% | 66% | 0.109 µg/mL (≈ 0.233 µM) | 52% | – | CCNc1cccnc1N1CCN(C(=O)c2ccc(C(=O)NCCN3CCOCC3)cn2)CC1 |
| 19% | 70% | 0.116 µg/mL (≈ 0.26 µM) | 56% | – | CCNc1cccnc1N1CCN(C(=O)c2ccc(C(=O)NCc3ccccn3)cn2)CC1 |
| 32% | 72% | 0.068 µg/mL (≈ 0.159 µM) | 56% | – | CCNc1cccnc1N1CCN(C(=O)c2ccc(C(=O)NC(C)(C)CO)cn2)CC1 |
| 39% | 75% | 0.029 µg/mL (≈ 0.0664 µM) | 65% | – | CC(C)Nc1cccnc1N1CCN(C(=O)c2ccc(C(=O)NC3CCCC3)cn2)CC1 |
| 60% | 88% | 0.002 µg/mL (≈ 0.00408 µM) | 72% | – | CC(C)CNc1cccnc1N1CCN(C(=O)c2ccc(C(=O)NCCCn3ccnc3)cn2)CC1 |
| 5% | 62% | 0.237 µg/mL (≈ 0.58 µM) | 51% | – | CC(C)Nc1cccnc1N1CCN(C(=O)c2ccc(C(=O)NC3CC3)cn2)CC1 |
| 58% | 90% | 0.005 µg/mL (≈ 0.0118 µM) | 66% | – | CC(C)CNc1cccnc1N1CCN(C(=O)c2ccc(C(=O)NC(C)C)cn2)CC1 |
| 60% | 87% | 0.002 µg/mL (≈ 0.00473 µM) | 71% | – | CC(C)CNc1cccnc1N1CCN(C(=O)c2ccc(C(=O)NC3CC3)cn2)CC1 |
| 26% | 74% | 0.085 µg/mL (≈ 0.191 µM) | 55% | – | CC(C)Nc1cccnc1N1CCN(C(=O)c2ccc(C(=O)Nc3ccccn3)cn2)CC1 |
| 23% | 65% | 0.149 µg/mL (≈ 0.363 µM) | 51% | – | CC(C)NC(=O)c1ccc(C(=O)N2CCN(c3ncccc3NC(C)C)CC2)nc1 |
| 36% | 75% | 0.049 µg/mL (≈ 0.119 µM) | 57% | – | CCNc1cccnc1N1CCN(C(=O)c2ccc(C(=O)NCCOC)cn2)CC1 |
| 52% | 84% | 0.007 µg/mL (≈ 0.0176 µM) | 69% | – | CCNc1cccnc1N1CCN(C(=O)c2ccc(C(=O)NCCO)cn2)CC1 |
| 62% | 80% | – | 65% | 0.001 µg/mL (≈ 0.00227 µM) | CC(C)Nc1cccnc1N1CCN(C(=O)c2ccc(C(=O)NC(C)(C)CO)cn2)CC1 |
| 20% | 72% | 0.123 µg/mL (≈ 0.271 µM) | 51% | – | COCCCNC(=O)c1ccc(C(=O)N2CCN(c3ncccc3NCC(C)C)CC2)nc1 |

| inhibition [1] | inhibition [2] | IC50 [3] | inhibition [4] | IC50 [5] | SMILES |
| --- | --- | --- | --- | --- | --- |
| 61% | 83% | 0.002 µg/mL (≈ 0.00471 µM) | 65% | – | CC(C)CNC(=O)c1ccc(C(=O)N2CCN(c3ncccc3NC(C)C)CC2)nc1 |
| 30% | 54% | 0.261 µg/mL (≈ 0.633 µM) | 51% | – | CC(C)Nc1cccnc1N1CCN(C(=O)c2ccc(C(=O)NCCO)cn2)CC1 |
| 20% | 70% | 0.124 µg/mL (≈ 0.276 µM) | 53% | – | Cc1ccn(NC(=O)c2ccc(C(=O)N3CCN(c4ncccc4NC(C)C)CC3)nc2)n1 |
| 53% | 77% | 0.007 µg/mL (≈ 0.0152 µM) | 62% | – | CC(C)Nc1cccnc1N1CCN(C(=O)c2ccc(C(=O)NCc3ccccn3)cn2)CC1 |
| 43% | 79% | 0.023 µg/mL (≈ 0.0624 µM) | 62% | – | CC(C)NC(=O)c1ccc(C(=O)N2CCN(c3ncccc3N)CC2)nc1 |
| 57% | 87% | 0.005 µg/mL (≈ 0.011 µM) | 65% | – | COC(CNC(=O)c1ccc(C(=O)N2CCN(c3ncccc3NC(C)C)CC2)nc1)OC |
| 65% | 89% | 0.001 µg/mL (≈ 0.0021 µM) | 72% | – | CC(C)Nc1cccnc1N1CCN(C(=O)c2ccc(C(=O)NCCCn3ccnc3)cn2)CC1 |
| 22% | 72% | 0.106 µg/mL (≈ 0.254 µM) | 54% | – | Nc1cccnc1N1CCN(C(=O)c2ccc(C(=O)NCc3ccccn3)cn2)CC1 |
| 54% | 85% | 0.006 µg/mL (≈ 0.0151 µM) | 67% | – | CCNc1cccnc1N1CCN(C(=O)c2ccc(C(=O)NC(C)C)cn2)CC1 |
| 54% | 74% | 0.003 µg/mL (≈ 0.0081 µM) | 67% | – | Nc1cccnc1N1CCN(C(=O)c2ccc(C(=O)NCCO)cn2)CC1 |
| 52% | 85% | 0.007 µg/mL (≈ 0.0159 µM) | 70% | – | COCCNC(=O)c1ccc(C(=O)N2CCN(c3ncccc3NCC(C)C)CC2)nc1 |
| 49% | 70% | 0.012 µg/mL (≈ 0.0249 µM) | 60% | – | CC(C)Nc1cccnc1N1CCN(C(=O)c2ccc(C(=O)NCCN3CCOCC3)cn2)CC1 |
| 13% | 71% | 0.17 µg/mL (≈ 0.357 µM) | 46% | – | CC(C)CNc1cccnc1N1CCN(C(=O)c2ccc(C(=O)Nc3ncccc3O)cn2)CC1 |
| 25% | 72% | 0.11 µg/mL (≈ 0.245 µM) | 50% | – | Cc1cc(NC(=O)c2ccc(C(=O)N3CCN(c4ncccc4NC(C)C)CC3)nc2)no1 |
| 61% | 88% | 0.002 µg/mL (≈ 0.00471 µM) | 72% | – | CC(C)Nc1cccnc1N1CCN(C(=O)c2ccc(C(=O)NC(C)(C)C)cn2)CC1 |
| 60% | 80% | 0.001 µg/mL (≈ 0.00234 µM) | 68% | – | COCCNC(=O)c1ccc(C(=O)N2CCN(c3ncccc3NC(C)C)CC2)nc1 |
| 49% | 71% | 0.012 µg/mL (≈ 0.0281 µM) | 60% | – | CC(C)Nc1cccnc1N1CCN(C(=O)c2ccc(C(=O)NCCCO)cn2)CC1 |
